What was measured:
Format in all cases: in vivo, human (healthy male volunteers)
[1] = Phase 1 trial Part II: plasma pharmacokinetics after repeated once-daily oral doses over 14 days; conditions: for Steady-state attained at day: once daily
Protocol: (§1) A Phase 1, randomized, double-blind, placebo-controlled clinical trial was performed to assess the safety and pharmacokinetics (PK) of Compound 1 after single, escalating, and repeated oral doses in healthy male volunteers.
(§2) The primary objective was to assess the safety of escalating repeated oral doses of Compound 1 over 14 days compared with placebo in healthy male volunteers. The secondary objective was to measure plasma pharmacokinetic (PK) parameters of Compound 1 and to assess the concentration of Compound 1 in quadriceps muscle.
(§3) 4-[(7-methoxy-2,3-dihydro-1,4-benzothiazepin-4(5H)yl)methyl]benzoic acid hemi-fumarate (Compound 1) was administered in a gastro-resistant tablet according to EXAMPLE 5. The formulation contained 20 mg, 40 mg, or 200 mg Compound 1 (based on the mass of 4-[(7-methoxy-2,3-dihydro-1,4-benzothiazepin-4(5H)yl)methyl]benzoic acid). Placebo tablet according to Example 2 was used as comparator.
In Part II, participants from groups I, J, K, and L received repeated doses of 20 mg, 60 mg, 120 mg, or 240 mg Compound 1, respectively, or corresponding placebo once daily over a period of 14 days. Forty-one subjects completed Part II: 7/7/8/7 for cohorts I, J, K, L, and twelve placebo.
In Part II, blood samples were collected from each participant as follows: Day 1:12 samples from the pre-morning dose up to 16 h (pre-dose, 0.25, 0.5, 1, 1.5, 2, 3, 4, 6, 8, 12, and 16 h), Days 2-13:12 samples at pre-doses (i.e., morning dose); Day 14:16 samples from the pre-morning dose up to 96 (D14 pre-dose, 0.25, 0.5, 1, 1.5, 2, 3, 4, 6, 8, 12, and 16 h and D15-18:1 sample before theoretical morning dosing.
(§4) The area under the plasma concentration-time curve was calculated using a combined linear and logarithmic trapezoidal rule. The interpolation was linear in the constant and ascending parts of the plasma concentration-time profiles. The interpolation was logarithmic in the descending parts.
For Part II, the same approach was used on AUC, (Day 14) respectively AUC24 (Day 1), and Cmax.
(§5) Plasma and muscle samples were analyzed by LC-MS/MS method.

[2] = Phase 1 trial Part II: concentration in quadriceps muscle biopsy on Day 13; conditions: for Total Cpd I concentration / Unbound Cpd I concentration: quadriceps muscle, Day 13, at least 3 h post dose, median (range); for Kp: geom. mean (geom. % CV)
Protocol: The primary objective was to assess the safety of escalating repeated oral doses of Compound 1 over 14 days compared with placebo in healthy male volunteers. The secondary objective was to measure plasma pharmacokinetic (PK) parameters of Compound 1 and to assess the concentration of Compound 1 in quadriceps muscle. For Study part II (for all groups), Concentrations of Compound 1 were determined in muscle by performing muscle biopsy on quadriceps muscle on day 13, at least 3 hours after morning dose. Plasma and muscle samples were analyzed by LC-MS/MS method. Muscle biopsy was performed to assess the concentration of Compound 1 in quadriceps muscle. The biopsy was performed on Day 13 at 3 hours post dose at least. Table 10 summarizes the ratios of unbound respective total concentration at Day 13 at 3 hours post dose divided by the plasma concentration on Day 14 at 3 hours post dose.

[3] = Phase 1 trial Part I: plasma pharmacokinetics after single ascending oral doses
Protocol: as §1
(§6) The primary objective was to assess the safety of escalating single oral doses of Compound 1 compared with placebo in healthy male volunteers. The secondary objective was to measure plasma pharmacokinetic (PK) parameters of Compound 1.
as §3
In part I, participants from groups A, B, C, D, and E received single doses of 40 mg, 80 mg, 160 mg, 240 mg, or 400 mg Compound 1, respectively, or corresponding placebo. Forty subjects completed part I: 30 active (6 per cohort) and 10 placebo.
In Part I, blood samples were collected from each participant as follows: at pre-dose, then 0.25, 0.5, 1, 1.5, 2, 3, 4, 5, 6, 8, 10, 12, 16, 24, 36, 48, 60, 72, and 96 hours after dosing.
as §4
For Part I, to assess the dose effect on the PK of Compound 1, the mean AUClast, and Cmax for each dose were calculated and were plotted by dose.
as §5

[4] = Phase 1 trial: safety and tolerability of single and repeated oral doses
Protocol: as §1, §6, §2

- Steady-state attained at day ([1]; 240 mg cohort): 5
- Steady-state attained at day ([1]; 20, 60, and 120 mg cohorts): 4
- inter-individual variability (Cmax and AUC24) ([1]; Part II, 20, 60, 120, and 240 mg/d): low
- Steady-state attained after days of daily treatment ([1]; Part II, across cohorts 20-240 mg once daily): 3 to 7 days
- dose proportionality of AUCτ resp. AUC0-24 and Cmax ([1]; Part II, graphical inspections): dose proportionality
- accumulation ratios for Cmax and AUC24 ([1]; after 14-day repeated administrations of 20, 60, 120, and 240 mg/d): 1.4-1.8
- Tmax ([1]; male, human, plasma, after 14-days of repeated once daily oral administrations of 20 mg (so in the source), read-out: median Tmax): 3 to 3.5 h
- dose proportionality of median unbound and total concentrations in quadriceps muscle ([2]; Part II, 20-240 mg once daily): dose proportional
- Kp at 3 h ([2]; male, human, quadriceps muscle / plasma, oral, summary, within the dose range 20-240 mg): 0.04 to 0.08
- Total Cpd I concentration ([2]; 20 mg once daily (n=7)): 171 (141-341) ng/g
- Unbound Cpd I concentration ([2]; 20 mg once daily (n=7)): 22.0 (17.5-41.5) ng/g
- Total Cpd I concentration ([2]; 60 mg once daily (n=7)): 489 (273-693) ng/g
- Unbound Cpd I concentration ([2]; 60 mg once daily (n=7)): 80.3 (49.7-124) ng/g
- Total Cpd I concentration ([2]; 120 mg once daily (n=8)): 913 (614-1207) ng/g
- Unbound Cpd I concentration ([2]; 120 mg once daily (n=8)): 104 (63.2-196) ng/g
- Total Cpd I concentration ([2]; 240 mg once daily (n=7)): 1480 (890-1745) ng/g
- Unbound Cpd I concentration ([2]; 240 mg once daily (n=7)): 242 (196-452) ng/g
- Kpu ([2]; summary, within the dose range 20-240 mg): 0.008-0.01
- Kp ([2]; total muscle concentration Day 13, 3 h post dose / plasma concentration Day 14, 3 h post dose, 20 mg once daily): 0.0808 (65.3) (ng/g)/(ng/mL)
- Kp ([2]; total muscle concentration Day 13 / plasma concentration Day 14, 3 h post dose, 60 mg once daily): 0.0640 (22.6) (ng/g)/(ng/mL)
- Kp ([2]; total muscle concentration Day 13 / plasma concentration Day 14, 3 h post dose, 120 mg once daily): 0.0636 (49.9) (ng/g)/(ng/mL)
- Kp ([2]; total muscle concentration Day 13 / plasma concentration Day 14, 3 h post dose, 240 mg once daily): 0.0440 (30.0) (ng/g)/(ng/mL)
- dose proportionality of AUClast and Cmax ([3]; Part I, graphical inspections): dose proportionality
- inter-individual variability across treatment groups ([3]; Part I, single oral doses): low
- tlag ([3]; after single oral administration at 20 to 400 mg, gastro-resistant tablet): less than 2 hours
- absorption ([3]; single oral administration, after a lag time consistent with the gastro-resistant tablet): rapid absorption
Compound: COc1ccc2c(c1)CN(Cc1ccc(C(=O)O)cc1)CCS2.O=C(O)/C=C/C(=O)O [Compound 1, 4-[(7-methoxy-2,3-dihydro-1,4-benzothiazepin-4(5H)yl)methyl]benzoic acid hemifumarate]
- linearity of pharmacokinetics with time and dose ([1]; single and repeat dose studies): No evidence of non-linearity with the time and dose
- linearity of pharmacokinetics with dose ([3]; Part I, single oral doses): No evidence of non-linearity with the dose
- tolerability ([4]; at the doses and dose regimens tested): well tolerated
- serious adverse events ([4]; single doses and 14-day repeated doses tested): No serious adverse events were reported

— US20250099483A1, “THERAPEUTIC COMPOUNDS” (priority 2021, published 2025)
